In ChEMBL document CHEMBL1139548, “Cyclic ADP-ribose analogues containing the methylenebisphosphonate linkage: effect of pyrophosphate modifications on Ca2+ release activity” (J Med Chem, 2005):

Test: Effective concentration against release of [Ca2+] ions from sea urchin egg
Type: functional

Row | SMILES | EC50
1 | N=c1c2ncn3c2ccn1C1OC(COP(=O)(O)CP(=O)(O)OC[C@H]2OC3[C@H](O)C2O)[C@@H](O)[C@H]1O (single isomer, unassigned) | 300 nM
2 | N=c1c2ncn3c2ncn1C1OC(COP(=O)(O)CP(=O)(O)OC[C@H]2OC3[C@H](O)C2O)[C@@H](O)[C@H]1O (single isomer, unassigned) | 856 nM
